Results from patent US20180017546A1, “METHODS OF ADMINISTERING AND EVALUATING NITROGEN SCAVENGING DRUGS FOR THE TREATMENT OF HEPATIC ENCEPHALOPATHY” (Horizon Therapeutics, LLC, priority 2012, published 2018).
Like-named read-outs stand apart in the source and are kept apart here.

Columns and labels:
[1] = tested on: subjects with cirrhosis and HE; test: HALT-HE clinical trial: count of HE events over 16 weeks by plasma ammonia level; format: in vivo, human
Protocol: The relationship between HE events and fasting ammonia levels was evaluated in subjects from the HALT-HE clinical trial (HPN-100-008, ClinicalTrials.gov identifier NCT00999167). To be eligible for HE analysis, subject had to (1) be included in the HALT-HE (Part B) safety population, (2) have at least one treatment with a study drug (either HPN-100 or placebo), and (3) have a quantifiable measurement of plasma ammonia from a blood specimen drawn at the visit and time point of interest. Of the 178 total subjects enrolled in the HALT-HE study and included in the safety population, 171 met the additional criteria.
Fasting ammonia levels were measured on day 1 (baseline) and at days 7 and 14. Day 1 values were derived from the measurement closest to, but prior to, initiation of dosing. Day 7 and 14 values were obtained from the nominal visit day and time point (pre-dose or 4-hour). To account for differences in local laboratories used during the clinical trial, local measurements of ammonia were standardized to an upper limit of normal (ULN) of 35 μmol/L according to the following formula:
Ammoniastd=Ammonialocal*(35/ULN of Ammonialocal).
[…] An HE event was defined as the occurrence of either (1) a West Haven Grade 2 or above or (2) a West Haven Grade 1 AND an asterixis grade increase of 1, if baseline West Haven was 0.
To describe the relationship between plasma ammonia levels and HE events, ammonia levels at the nominal times were initially grouped into five categories as multiples of the standardized ULN (35 μmol/L): (1) [0-≦0.5], (2) [0.5-≦1.0], (3) [1.0-≦1.5], (4) [1.5-≦2.0], and (5) [>2.0].
Each subject had between zero and eight HE episodes over the course of their exposure to study drug. The relationship between ammonia at a given nominal time and the number of HE events was modeled using a negative binomial model whereby the effect of study drug was considered only after controlling for ammonia level. […] Based on the model, the number of HE events was estimated for each level of ammonia. By comparing each level of ammonia to the lowest level, the pattern of the relationship could not only be described but also statistically tested through a priori contrasts.
The relationship between HE events and ammonia levels at day 7 (pre-dose), day 7 (four hours after dosing), day 14 (pre-dose), and day 14 (four hours after dosing) for each of these groups is summarized in FIGS. 2-6. […] The relationship between HE events and ammonia levels at day 1, day 7 (pre-dose), day 7 (four hours after dosing), day 14 (pre-dose), and day 14 (four hours after dosing) for each of these groups is summarized in Tables 1-5, respectively. In each table, the first three rows for each treatment group show results for the three category model ([0-1.0], [>1.0-1.5], and [>1.5]), while the next two rows show results for the two category model ([0-1.5] and [>1.5]). Note that, based on the statistical methodology, estimation of HE events for input category >1.5 in a two category model is not necessarily equal to the result for the three category model.

[2] = Conversion of PAA prodrug to urinary PAGN in 130 HE patients at steady state dosing; format: in vivo, human; settings: steady state dosing with NaPBA or equivalent dose of HPN-100
Protocol: As disclosed herein, additional trials have been performed to evaluate the conversion of PAA to urinary PAGN in subjects with HE. Urinary PAGN output was measured in 130 HE patients during steady state dosing with either NaPBA or an equivalent dose of HPN-100. As summarized in Table 11, the mean percent conversion of PAA prodrug to urinary PAGN in HE patients was about 57%, with a 95% confidence interval range of 52-63%.

[3] = cited from earlier work; for Mean percent conversion of HPN-100 to urinary PAGN: 8 subjects
[4] = ammonia on day 7, four hours post-dose, [0-1.0] ULN, three category model
[5] = ammonia on day 7, four hours post-dose, [0-1.5] ULN, two category model
[6] = ammonia on day 7, four hours post-dose, [>1.0-1.5] ULN, three category model
[7] = ammonia on day 7, four hours post-dose, [>1.5] ULN, three category model
[8] = ammonia on day 7, four hours post-dose, [>1.5] ULN, two category model
[9] = ammonia on day 14 (pre-dose), [0-1.0] ULN, three category model
[10] = ammonia on day 14 (pre-dose), [0-1.5] ULN, two category model
[11] = ammonia on day 14 (pre-dose), [>1.0-1.5] ULN, three category model
[12] = ammonia on day 14 (pre-dose), [>1.5] ULN, three category model
[13] = ammonia on day 14 (pre-dose), [>1.5] ULN, two category model
[14] = ammonia on day 14, four hours post-dose, [0-1.0] ULN, three category model
[15] = ammonia on day 14, four hours post-dose, [0-1.5] ULN, two category model
[16] = ammonia on day 14, four hours post-dose, [>1.0-1.5] ULN, three category model
[17] = ammonia on day 14, four hours post-dose, [>1.5] ULN, three category model
[18] = ammonia on day 14, four hours post-dose, [>1.5] ULN, two category model
[19] = pre-dose ammonia on day 1, [0-1.0] ULN, three category model
[20] = pre-dose ammonia on day 1, [0-1.5] ULN, two category model
[21] = pre-dose ammonia on day 1, [>1.0-1.5] ULN, three category model
[22] = pre-dose ammonia on day 1, [>1.5] ULN, three category model
[23] = pre-dose ammonia on day 1, [>1.5] ULN, two category model
[24] = pre-dose ammonia on day 7, [0-1.0] ULN, three category model
[25] = pre-dose ammonia on day 7, [0-1.5] ULN, two category model
[26] = pre-dose ammonia on day 7, [>1.0-1.5] ULN, three category model
[27] = pre-dose ammonia on day 7, [>1.5] ULN, three category model
[28] = pre-dose ammonia on day 7, [>1.5] ULN, two category model

SMILES: O=C(CCCc1ccccc1)OCC(COC(=O)CCCc1ccccc1)OC(=O)CCCc1ccccc1 [HPN-100, glyceryl tri-[4-phenylbutyrate]]
- No. of per-subject HE Events Estimated over 16 weeks [1, 4]: 0.16
- No. of per-subject HE Events Estimated over 52 weeks [1, 4]: 0.51
- No. of per-subject HE Events Max [1, 4]: 2
- No. of per-subject HE Events Min [1, 4]: 0
- No. of per-subject HE Events Estimated over 16 weeks [1, 5]: 0.41
- No. of per-subject HE Events Estimated over 52 weeks [1, 5]: 1.34
- No. of per-subject HE Events Max [1, 5]: 5
- No. of per-subject HE Events Min [1, 5]: 0
- No. of per-subject HE Events Estimated over 16 weeks [1, 6]: 0.88
- No. of per-subject HE Events Estimated over 52 weeks [1, 6]: 2.85
- No. of per-subject HE Events Max [1, 6]: 5
- No. of per-subject HE Events Min [1, 6]: 0
- No. of per-subject HE Events Estimated over 16 weeks [1, 7]: 1.16
- No. of per-subject HE Events Estimated over 52 weeks [1, 7]: 3.77
- No. of per-subject HE Events Max [1, 7]: 4
- No. of per-subject HE Events Min [1, 7]: 0
- No. of per-subject HE Events Estimated over 16 weeks [1, 8]: 1.18
- No. of per-subject HE Events Estimated over 52 weeks [1, 8]: 3.85
- No. of per-subject HE Events Max [1, 8]: 4
- No. of per-subject HE Events Min [1, 8]: 0
- No. of per-subject HE Events Estimated over 16 weeks [1, 9]: 0.36
- No. of per-subject HE Events Estimated over 52 weeks [1, 9]: 1.18
- No. of per-subject HE Events Max [1, 9]: 5
- No. of per-subject HE Events Min [1, 9]: 0
- No. of per-subject HE Events Estimated over 16 weeks [1, 10]: 0.37
- No. of per-subject HE Events Estimated over 52 weeks [1, 10]: 1.21
- No. of per-subject HE Events Max [1, 10]: 5
- No. of per-subject HE Events Min [1, 10]: 0
- No. of per-subject HE Events Estimated over 16 weeks [1, 11]: 0.40
- No. of per-subject HE Events Estimated over 52 weeks [1, 11]: 1.29
- No. of per-subject HE Events Max [1, 11]: 2
- No. of per-subject HE Events Min [1, 11]: 0
- No. of per-subject HE Events Estimated over 16 weeks [1, 12]: 1.29
- No. of per-subject HE Events Estimated over 52 weeks [1, 12]: 4.21
- No. of per-subject HE Events Max [1, 12]: 4
- No. of per-subject HE Events Min [1, 12]: 0
- No. of per-subject HE Events Estimated over 16 weeks [1, 13]: 1.29
- No. of per-subject HE Events Estimated over 52 weeks [1, 13]: 4.21
- No. of per-subject HE Events Max [1, 13]: 4
- No. of per-subject HE Events Min [1, 13]: 0
- No. of per-subject HE Events Estimated over 16 weeks [1, 14]: 0.28
- No. of per-subject HE Events Estimated over 52 weeks [1, 14]: 0.92
- No. of per-subject HE Events Max [1, 14]: 4
- No. of per-subject HE Events Min [1, 14]: 0
- No. of per-subject HE Events Estimated over 16 weeks [1, 15]: 0.33
- No. of per-subject HE Events Estimated over 52 weeks [1, 15]: 1.09
- No. of per-subject HE Events Max [1, 15]: 4
- No. of per-subject HE Events Min [1, 15]: 0
- No. of per-subject HE Events Estimated over 16 weeks [1, 16]: 0.41
- No. of per-subject HE Events Estimated over 52 weeks [1, 16]: 1.33
- No. of per-subject HE Events Max [1, 16]: 2
- No. of per-subject HE Events Min [1, 16]: 0
- No. of per-subject HE Events Estimated over 16 weeks [1, 17]: 0.96
- No. of per-subject HE Events Estimated over 52 weeks [1, 17]: 3.13
- No. of per-subject HE Events Max [1, 17]: 4
- No. of per-subject HE Events Min [1, 17]: 0
- No. of per-subject HE Events Estimated over 16 weeks [1, 18]: 0.97
- No. of per-subject HE Events Estimated over 52 weeks [1, 18]: 3.14
- No. of per-subject HE Events Max [1, 18]: 4
- No. of per-subject HE Events Min [1, 18]: 0
- No. of per-subject HE Events Estimated over 16 weeks [1, 19]: 0.25
- No. of per-subject HE Events Estimated over 52 weeks [1, 19]: 0.80
- No. of per-subject HE Events Max [1, 19]: 2
- No. of per-subject HE Events Min [1, 19]: 0
- No. of per-subject HE Events Estimated over 16 weeks [1, 20]: 0.39
- No. of per-subject HE Events Estimated over 52 weeks [1, 20]: 1.26
- No. of per-subject HE Events Max [1, 20]: 5
- No. of per-subject HE Events Min [1, 20]: 0
- No. of per-subject HE Events Estimated over 16 weeks [1, 21]: 0.61
- No. of per-subject HE Events Estimated over 52 weeks [1, 21]: 1.98
- No. of per-subject HE Events Max [1, 21]: 5
- No. of per-subject HE Events Min [1, 21]: 0
- No. of per-subject HE Events Estimated over 16 weeks [1, 22]: 1.35
- No. of per-subject HE Events Estimated over 52 weeks [1, 22]: 4.37
- No. of per-subject HE Events Max [1, 22]: 4
- No. of per-subject HE Events Min [1, 22]: 0
- No. of per-subject HE Events Estimated over 16 weeks [1, 23]: 1.36
- No. of per-subject HE Events Estimated over 52 weeks [1, 23]: 4.41
- No. of per-subject HE Events Max [1, 23]: 4
- No. of per-subject HE Events Min [1, 23]: 0
- No. of per-subject HE Events Estimated over 16 weeks [1, 24]: 0.29
- No. of per-subject HE Events Estimated over 52 weeks [1, 24]: 0.95
- No. of per-subject HE Events Max [1, 24]: 2
- No. of per-subject HE Events Min [1, 24]: 0
- No. of per-subject HE Events Estimated over 16 weeks [1, 25]: 0.45
- No. of per-subject HE Events Estimated over 52 weeks [1, 25]: 1.47
- No. of per-subject HE Events Max [1, 25]: 5
- No. of per-subject HE Events Min [1, 25]: 0
- No. of per-subject HE Events Estimated over 16 weeks [1, 26]: 0.90
- No. of per-subject HE Events Estimated over 52 weeks [1, 26]: 2.92
- No. of per-subject HE Events Max [1, 26]: 5
- No. of per-subject HE Events Min [1, 26]: 0
- No. of per-subject HE Events Estimated over 16 weeks [1, 27]: 1.38
- No. of per-subject HE Events Estimated over 52 weeks [1, 27]: 4.50
- No. of per-subject HE Events Max [1, 27]: 4
- No. of per-subject HE Events Min [1, 27]: 0
- No. of per-subject HE Events Estimated over 16 weeks [1, 28]: 1.40
- No. of per-subject HE Events Estimated over 52 weeks [1, 28]: 4.56
- No. of per-subject HE Events Max [1, 28]: 4
- No. of per-subject HE Events Min [1, 28]: 0
- Mean percent conversion of PAA prodrug to urinary PAGN [2]: consistent
- Mean percent conversion of HPN-100 to urinary PAGN ([3]; control group of healthy adults with normal hepatic function): 68.6%
- Mean percent conversion of HPN-100 to urinary PAGN ([3]; hepatic impairment with cirrhosis, Child-Pugh score A): 79.6%
- Mean percent conversion of HPN-100 to urinary PAGN ([3]; hepatic impairment with cirrhosis, Child-Pugh score B): 58.2%
- Mean percent conversion of HPN-100 to urinary PAGN ([3]; hepatic impairment with cirrhosis, Child-Pugh score C): 85.0%
- Overall mean percent conversion of HPN-100 to urinary PAGN ([3]; overall for the four subject groups): about 75%

SMILES: O=C(O)CCCc1ccccc1 [sodium PBA, reference compound]
- Mean percent conversion of PAA prodrug to urinary PAGN [2]: consistent
